According to patent US7928226B2, “Salts and polymorphs of a VEGF-R inhibitor” (Agouron Pharmaceuticals Inc., priority 2005, dated 2011):
Where two headings read alike, the source gives them in different places.

What was measured:
[1] = Solid state stability at 40° C./75% RH (HPLC and polymorphic form); type: physicochemical
Protocol: The solid state stabilities as shown in Tables 5 and 7 were measured using the following procedure. A preliminary HPLC method was developed to investigate the stability of the salt forms of compound 1. The HPLC conditions are listed below.

Water solubility = type: physicochemical
human xenograft tumors = settings: in vivo; cited from earlier work
tumor angiogenesis = settings: in vivo; cited from earlier work
[2] = tested on: VEGF-stimulated receptor autophosphorylation; settings: cited from earlier work
[3] = tested on: endothelial cell survival; settings: cited from earlier work

For `CNC(=O)c1c(C)oc2cc(Oc3ccnc4cc(OCCN5CCOCC5)ccc34)ccc12` [Bis-HBr Form I, N,2-dimethyl-6-[7-(2-morpholinoethoxy)quinolin-4-yloxy]benzofuran-3-carboxamide], the “Solid state stability, polymorphic form found, T (1 week) close” value ([1]; bis-HBr salt) was “Form 1”, the “Solid state stability, polymorphic form found, T (1 week) open” value ([1]; bis-HBr salt) was “Form I & II” and the “Solid state stability, polymorphic form found, T (4 week) close” value ([1]; bis-HBr salt) was “Form I & II”. For the same compound, the “Solid state stability, polymorphic form found, T (4 week) open” value ([1]; bis-HBr salt) was “Form II”, the “Solid state stability, polymorphic form found, T (6 week) close” value ([1]; bis-HBr salt) was “Form II” and the “Solid state stability, polymorphic form found, T (6 week) open” value ([1]; bis-HBr salt) was “Form II”. For the same compound, the “Solid state stability, polymorphic form found, T (0)” value ([1]; bis-HBr salt) was “Form 1” and the solubility (Water solubility; pH 3.4, read-out: Solubility) was > 30 mg/mL.
With `CNC(=O)c1c(C)oc2cc(Oc3ccnc4cc(OCCN5CCOCC5)ccc34)ccc12` [Bis-HBr Form II, N,2-dimethyl-6-[7-(2-morpholinoethoxy)quinolin-4-yloxy]benzofuran-3-carboxamide] the “Solid state stability (HPLC %) T (1 week) close” value ([1]; bis-HBr salt) was 98.70%, the “Solid state stability, polymorphic form found, T (1 week) close” value ([1]; bis-HBr salt) was “Form II” and the “Solid state stability (HPLC %) T (1 week) open” value ([1]; bis-HBr salt) was 98.61%. For the same compound, the “Solid state stability, polymorphic form found, T (1 week) open” value ([1]; bis-HBr salt) was “Form II”, the “Solid state stability (HPLC %) T (4 week) close” value ([1]; bis-HBr salt) was 98.66% and the “Solid state stability, polymorphic form found, T (4 week) close” value ([1]; bis-HBr salt) was “Form II”. For the same compound, the “Solid state stability (HPLC %) T (4 week) open” value ([1]; bis-HBr salt) was 98.62%, the “Solid state stability, polymorphic form found, T (4 week) open” value ([1]; bis-HBr salt) was “Form II” and the “Solid state stability (HPLC %) T (6 week) close” value ([1]; bis-HBr salt) was 98.61%. For the same compound, the “Solid state stability, polymorphic form found, T (6 week) close” value ([1]; bis-HBr salt) was “Form II”, the “Solid state stability (HPLC %) T (6 week) open” value ([1]; bis-HBr salt) was 98.49% and the “Solid state stability, polymorphic form found, T (6 week) open” value ([1]; bis-HBr salt) was “Form II”. For the same compound, the “Solid state stability (HPLC %) T (0)” value ([1]; bis-HBr salt) was 98.53%, the “Solid state stability, polymorphic form found, T (0)” value ([1]; bis-HBr salt) was “Form II” and the solubility (Water solubility; pH 3.4) was >30 mg/ml (pH 3.4).
For `CNC(=O)c1c(C)oc2cc(Oc3ccnc4cc(OCCN5CCOCC5)ccc34)ccc12` [Bis-maleate Form III, N,2-dimethyl-6-[7-(2-morpholinoethoxy)quinolin-4-yloxy]benzofuran-3-carboxamide], the “Solid state stability, polymorphic form found, T (1 week) close” value ([1]; bis-maleate salt) was “Form III”, the “Solid state stability, polymorphic form found, T (4 week) close” value ([1]; bis-maleate salt) was “Form III” and the “Solid state stability (HPLC %) T (6 week) close” value ([1]; bis-maleate salt) was 99.9%. The “Solid state stability, polymorphic form found, T (6 week) close” value ([1]; bis-maleate salt) was “Form III”, the “Solid state stability (HPLC %) T (0)” value ([1]; bis-maleate salt) was 99.9% and the “Solid state stability, polymorphic form found, T (0)” value ([1]; bis-maleate salt) was “Form III”. The solubility (Water solubility; pH 3.8, read-out: Solubility) was ≥ 30 mg/mL.
For `CNC(=O)c1c(C)oc2cc(Oc3ccnc4cc(OCCN5CCOCC5)ccc34)ccc12` [compound 1, N,2-dimethyl-6-[7-(2-morpholinoethoxy)quinolin-4-yloxy]benzofuran-3-carboxamide], the “inhibition of the growth of human xenograft tumors” value (human xenograft tumors) is listed as “significant inhibition”, the “inhibition of tumor angiogenesis” value (tumor angiogenesis) is listed as “significant inhibition” and the “blocking of VEGF-stimulated receptor autophosphorylation” value [2] is listed as “selectively blocks”. For the same compound, the “blocking of endothelial cell survival” value [3] was “selectively blocks”.
For `CNC(=O)c1c(C)oc2cc(Oc3ccnc4cc(OCCN5CCOCC5)ccc34)ccc12` [Bis-maleate Form I, N,2-dimethyl-6-[7-(2-morpholinoethoxy)quinolin-4-yloxy]benzofuran-3-carboxamide], the “Solid state stability (HPLC %) T (1 week) close” value ([1]; bis-maleate salt) was 99.9%, the “Solid state stability, polymorphic form found, T (1 week) close” value ([1]; bis-maleate salt) was “Form I” and the “Solid state stability (HPLC %) T (1 week) open” value ([1]; bis-maleate salt) was 99.9%. For the same compound, the “Solid state stability, polymorphic form found, T (1 week) open” value ([1]; bis-maleate salt) was “Form I”, the “Solid state stability (HPLC %) T (4 week) close” value ([1]; bis-maleate salt) was 99.9% and the “Solid state stability, polymorphic form found, T (4 week) close” value ([1]; bis-maleate salt) was “Form I”. The “Solid state stability (HPLC %) T (4 week) open” value ([1]; bis-maleate salt) was 99.9%, the “Solid state stability, polymorphic form found, T (4 week) open” value ([1]; bis-maleate salt) was “Form I” and the “Solid state stability (HPLC %) T (6 week) close” value ([1]; bis-maleate salt) was 99.9%. For the same compound, the “Solid state stability, polymorphic form found, T (6 week) close” value ([1]; bis-maleate salt) was “Form I”, the “Solid state stability (HPLC %) T (6 week) open” value ([1]; bis-maleate salt) was 99.8% and the “Solid state stability, polymorphic form found, T (6 week) open” value ([1]; bis-maleate salt) was “Form I”. The “Solid state stability (HPLC %) T (0)” value ([1]; bis-maleate salt) was 99.9%, the “Solid state stability, polymorphic form found, T (0)” value ([1]; bis-maleate salt) was “Form I” and the solubility (Water solubility; pH 3.6, read-out: Solubility) was ≥ 150 mg/mL.
